Results on eight compounds are retold here after patent US20230017045A1, “PYRIDINE AND PYRIMIDINE CARBOXYLATE HERBICIDES AND METHODS OF USE THEREOF” (Dow AgroSciences LLC, priority 2017, published 2023).

The assay deals with test plant species. The assay can be described thus: Post-emergent herbicidal activity test (greenhouse, foliar spray, visual growth reduction). The assay is classed as in vivo. The note with it: post-emergence, 336 h, 140 g ai/ha. A digest of the protocol: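 Greenhouse plants at first–second true leaf stage sprayed overhead at 187 L/ha with compound in acetone/water/isopropanol/DMSO/crop oil/X-77 carrier; controls received solvent blank. Injury rated visually after 14 d on a 0–100% scale versus untreated and control plants, converted to growth reduction.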

Setting [1] is: ECHCG: barnyardgrass (Echinochloa crus-galli), 14 days after application, read-out: Visual Growth Reduction (%) 14 Days After Application, ECHCG.
[2] abbreviates: IPOHE: ivy-leaf morning glory (Ipomoea hederacea), 14 days after application, read-out: Visual Growth Reduction (%) 14 Days After Application, IPOHE.
Setting [3] is: KCHSC: kochia (Bassia scoparia), 14 days after application, read-out: Visual Growth Reduction (%) 14 Days After Application, KCHSC.
[4] abbreviates: ORYSA: rice (Oryza sativa), 14 days after application, read-out: Visual Growth Reduction (%) 14 Days After Application, ORYSA.
Setting [5] is: SETFA: giant foxtail (Setaria faberi), 14 days after application, read-out: Visual Growth Reduction (%) 14 Days After Application, SETFA.
The mark [6] stands for this setting: SORVU: grain sorghum (Sorghum vulgare), 14 days after application, read-out: Visual Growth Reduction (%) 14 Days After Application, SORVU.
[7] abbreviates: STEME: common chickweed (Stellaria media), 14 days after application, read-out: Visual Growth Reduction (%) 14 Days After Application, STEME.
Where [8] appears, read: TRZAS: wheat, spring (Triticum aestivum), 14 days after application, read-out: Visual Growth Reduction (%) 14 Days After Application, TRZAS.
The mark [9] stands for this setting: blackgrass (Alopecurus myosuroides), 14 Days After Application, read-out: Visual Growth Reduction (%) ALOMY.
The mark [10] stands for this setting: canada thistle (Cirsium arvense), 14 Days After Application, read-out: Visual Growth Reduction (%) CIRAR.
[11] abbreviates: crabgrass (Digitaria sanguinalis), 14 Days After Application, read-out: Visual Growth Reduction (%) DIGSA.
The mark [12] stands for this setting: lambsquarters (Chenopodium album), 14 Days After Application, read-out: Visual Growth Reduction (%) CHEAL.
[13] abbreviates: redroot pigweed (Amaranthus retroflexus), 14 Days After Application, read-out: Visual Growth Reduction (%) AMARE.
The mark [14] stands for this setting: wild oat (Avena fatua), 14 Days After Application, read-out: Visual Growth Reduction (%) AVEFA.
Where [15] appears, read: yellow nutsedge (Cyperus esculentus), 14 Days After Application, read-out: Visual Growth Reduction (%) CYPES.

Where two headings read alike, the source gives them in different places.

For `COc1cc2c(cc1-c1ccc(Cl)c(C(=O)O)n1)OC(F)(F)O2` [F356, 3-Chloro-6-(2,2-difluoro-6-methoxybenzo[d][1,3]dioxol-5-yl)picolinic acid], the pest or weed control at 140 g/ha under setting [1] fell in the range of 0 to 29%; the pest or weed control at 140 g/ha under setting [2] fell in the range of 95 to 100%; the pest or weed control at 140 g/ha under setting [3] was 0 to 29%; the pest or weed control at 140 g/ha under setting [4] fell in the range of 0 to 29%; the pest or weed control at 140 g/ha under setting [5] fell in the range of 0 to 29%; the pest or weed control at 140 g/ha under setting [6] was in the range of 30 to 44%. Also, the pest or weed control at 140 g/ha reads like this: under setting [7], 0 to 29%; under setting [8], 0 to 29%; under setting [9], 0 to 29%; under setting [10], 0 to 29%; under setting [11], 0 to 29%; under setting [12], 60 to 74%. Besides, the pest or weed control at 140 g/ha is, setting by setting: under setting [13], 0 to 29%; under setting [14], 0 to 29%; under setting [15], 0 to 29%.

Turning to `COC(=O)c1nc(-c2ccc(C=O)c(F)c2OC)c(F)cc1Cl` [F357, methyl 3-chloro-5-fluoro-6-(3-fluoro-4-formyl-2-methoxyphenyl)picolinate], the pest or weed control at 140 g/ha was 0 to 29% under setting [1]; 0 to 29% under setting [2]; 0 to 29% under setting [3]; 0 to 29% under setting [4]; 0 to 29% under setting [5]; 0 to 29% under setting [6]. Also, the pest or weed control at 140 g/ha is, setting by setting: under setting [7], 0 to 29%; under setting [8], 0 to 29%; under setting [9], 0 to 29%; under setting [10], 0 to 29%; under setting [11], 0 to 29%; under setting [12], 0 to 29%. Besides, the pest or weed control at 140 g/ha by setting is: under setting [13], 0 to 29%; under setting [14], 0 to 29%; under setting [15], 0 to 29%.

For the compound `COC(=O)c1nc(-c2ccc(N)cc2Cl)c(F)cc1Cl` [F358, Methyl 6-(4-amino-2-chlorophenyl)-3-chloro-5-fluoropicolinate], the pest or weed control at 140 g/ha reads like this: under setting [1], 0 to 29%; under setting [2], 0 to 29%; under setting [3], 0 to 29%; under setting [4], 0 to 29%; under setting [5], 0 to 29%; under setting [6], 0 to 29%. Moreover, the pest or weed control at 140 g/ha reads like this: under setting [7], 0 to 29%; under setting [8], 0 to 29%; under setting [9], 0 to 29%; under setting [10], 0 to 29%; under setting [11], 0 to 29%; under setting [12], 0 to 29%. For the same compound, the pest or weed control at 140 g/ha runs as follows: under setting [13], 0 to 29%; under setting [14], 0 to 29%; under setting [15], 0 to 29%.

For the compound `COC(=O)c1nc(-c2cc(F)c(C(F)(F)F)cc2OC)c(F)cc1Cl` [F359, Methyl 3-chloro-5-fluoro-6-(5-fluoro-2-methoxy-4-(trifluoromethyl)phenyl)picolinate], the pest or weed control at 140 g/ha by setting is: under setting [1], 95 to 100%; under setting [2], 95 to 100%; under setting [3], 85 to 94%; under setting [4], 0 to 29%; under setting [5], 95 to 100%; under setting [6], 85 to 94%. The pest or weed control at 140 g/ha lay in the range of 0 to 29% under setting [7]; 60 to 74% under setting [8]; 30 to 44% under setting [9]; 75 to 84% under setting [10]; 30 to 44% under setting [11]; 95 to 100% under setting [12]. In addition, the pest or weed control at 140 g/ha runs as follows: under setting [13], 95 to 100%; under setting [14], 75 to 84%; under setting [15], 0 to 29%.

With `COC(=O)c1nc(-c2cc(C)c(C(F)(F)F)cc2F)c(F)cc1Cl` [F360, Methyl 3-chloro-5-fluoro-6-(2-fluoro-5-methyl-4-(trifluoromethyl)phenyl)picolinate], the pest or weed control at 140 g/ha under setting [1] is 0 to 29%; the pest or weed control at 140 g/ha under setting [2] was in the range of 95 to 100%; the pest or weed control at 140 g/ha under setting [3] was in the range of 45 to 59%; the pest or weed control at 140 g/ha under setting [4] was 0 to 29%; the pest or weed control at 140 g/ha under setting [5] was in the range of 0 to 29%; the pest or weed control at 140 g/ha under setting [6] lay within 0 to 29%. Besides, the pest or weed control at 140 g/ha under setting [7] is 0 to 29%; the pest or weed control at 140 g/ha under setting [8] was in the range of 0 to 29%; the pest or weed control at 140 g/ha under setting [9] fell in the range of 0 to 29%; the pest or weed control at 140 g/ha under setting [10] fell in the range of 0 to 29%; the pest or weed control at 140 g/ha under setting [11] fell in the range of 0 to 29%; the pest or weed control at 140 g/ha under setting [12] was in the range of 95 to 100%. Also, the pest or weed control at 140 g/ha runs as follows: under setting [13], 95 to 100%; under setting [14], 0 to 29%; under setting [15], 0 to 29%.

Turning to `COC(=O)c1nc(-c2cc(C)c(C(F)(F)F)cc2F)ccc1Cl` [F361, Methyl 3-chloro-6-(2-fluoro-5-methyl-4-(trifluoromethyl)phenyl)picolinate], the pest or weed control at 140 g/ha is 0 to 29% under setting [1]; 75 to 84% under setting [2]; 0 to 29% under setting [3]; 0 to 29% under setting [4]; 0 to 29% under setting [5]; 0 to 29% under setting [6]. In addition, the pest or weed control at 140 g/ha is 0 to 29% under setting [7]; 0 to 29% under setting [8]; 0 to 29% under setting [9]; 0 to 29% under setting [10]; 0 to 29% under setting [11]; 85 to 94% under setting [12]. The pest or weed control at 140 g/ha runs as follows: under setting [13], 45 to 59%; under setting [14], 0 to 29%; under setting [15], 0 to 29%.

For `COC(=O)c1nc(-c2cc(F)c(C(F)(F)F)cc2OC)ccc1Cl` [F362, Methyl 3-chloro-6-(5-fluoro-2-methoxy-4-(trifluoromethyl)phenyl)picolinate], the pest or weed control at 140 g/ha runs as follows: under setting [1], 0 to 29%; under setting [2], 95 to 100%; under setting [3], 30 to 44%; under setting [4], 0 to 29%; under setting [5], 60 to 74%; under setting [6], 85 to 94%. Further, the pest or weed control at 140 g/ha by setting is: under setting [7], 0 to 29%; under setting [8], 0 to 29%; under setting [9], 0 to 29%; under setting [10], 0 to 29%; under setting [11], 45 to 59%; under setting [12], 85 to 94%. For the same compound, the pest or weed control at 140 g/ha lay in the range of 95 to 100% under setting [13], 0 to 29% under setting [14] and 0 to 29% under setting [15].

Take `COc1cc(C(F)(F)F)ccc1-c1nc(C(=O)OCc2ccccc2)c(Cl)cc1F` [F363, Benzyl 3-chloro-5-fluoro-6-(2-methoxy-4-(trifluoromethyl)phenyl)picolinate]: the pest or weed control at 140 g/ha by setting is: under setting [1], 95 to 100%; under setting [2], 95 to 100%; under setting [3], 75 to 84%; under setting [4], 30 to 44%; under setting [5], 85 to 94%; under setting [6], 95 to 100%. In addition, the pest or weed control at 140 g/ha was 30 to 44% under setting [7]; 75 to 84% under setting [8]; 0 to 29% under setting [9]; 85 to 94% under setting [10]; 0 to 29% under setting [11]; 95 to 100% under setting [12]. For the same compound, the pest or weed control at 140 g/ha lay within 95 to 100% under setting [13], 85 to 94% under setting [14] and 0 to 29% under setting [15].
